In patent US6841519B1, “Isoxazoline derivatives and herbicides containing the same as the active ingredient” (Kumiai Chemical Industry Co., Ltd., priority 1999, dated 2005):

How the values were obtained:
Assay type in all cases: in vivo
[1] = test system: Echinochloa oryzicola Vasing. (Eo); test: Test for herbicidal effect by paddy field soil treatment (Test Example 1); details: application amount (active ingredient) 100 g/10 a, examined at the 21st day from the treatment, index per Table 40
Procedure, shortened: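 Scored on a standard scale at day 21 in the greenhouse: herbicidal effect of wettable powder applied to flooded water (3 cm depth) at 100 g a.i./10 ares, one day after sowing Eo into puddled paddy soil.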

[2] = test system: Echinochloa crus-galli (L.) Beauv. var. crusgall (Ec); test: Test for herbicidal effect by upland field soil treatment (Test Example 2), Ec; details: 100 g/10 a active ingredient, examined at 21st day
Procedure, shortened: (§1)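 Pre-emergence soil treatment: wettable powder diluted in water and sprayed on soil just sown with Ec and Se seeds, delivering 100 g active ingredient per 10 ares in 100 liters per 10 ares. Herbicidal effect was rated against a fixed scale 21 days later, after greenhouse growth.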

[3] = test system: Setaria viridis (L.) Beauv. (Se); test: Test for herbicidal effect by upland field soil treatment (Test Example 2), Se; details: 100 g/10 a active ingredient, examined at 21st day
Procedure, shortened: as §1

[4] = test system: Echinochloa crus-galli (L.) Beauv. var. crusgalli (Ec); test: Test for herbicidal effect by upland foliage treatment (Test Example 3); details: 100 g/10 a active ingredient, examined at 14th day
Procedure, shortened: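 Scored 14 days post-spray against a graded standard: greenhouse-grown Ec, 2 weeks old in upland soil, received whole-foliage application of diluted wettable powder (100 g active ingredient per 10 ares, spray volume 100 L per 10 ares).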

Structure (SMILES)	Herbicidal effect to Eo [1]	Herbicidal effect to Ec [2]	Herbicidal effect to Se [3]	Herbicidal effect to Ec [4]
CC1(C)CC(S(=O)(=O)Cc2ccc(Br)cc2F)=NO1 [Compound 1-516]	5 (A herbicidal effect or phytotoxicity of 90% or more)	5 (A herbicidal effect or phytotoxicity of 90% or more)	5 (A herbicidal effect or phytotoxicity of 90% or more)	5 (A herbicidal effect or phytotoxicity of 90% or more)
CC1(C)CC(S(=O)(=O)Cc2ccccc2S(=O)(=O)C(F)(F)F)=NO1 [Compound 1-517]	5 (A herbicidal effect or phytotoxicity of 90% or more)	5 (A herbicidal effect or phytotoxicity of 90% or more)	5 (A herbicidal effect or phytotoxicity of 90% or more)	5 (A herbicidal effect or phytotoxicity of 90% or more)
CC1(C)CC(S(=O)(=O)Cc2ccccc2I)=NO1 [Compound 1-521]	5 (A herbicidal effect or phytotoxicity of 90% or more)	5 (A herbicidal effect or phytotoxicity of 90% or more)	5 (A herbicidal effect or phytotoxicity of 90% or more)	5 (A herbicidal effect or phytotoxicity of 90% or more)
Cc1cccc(CS(=O)(=O)C2=NOC(C)(C)C2)c1C [Compound 1-522]	5 (A herbicidal effect or phytotoxicity of 90% or more)	5 (A herbicidal effect or phytotoxicity of 90% or more)	5 (A herbicidal effect or phytotoxicity of 90% or more)	5 (A herbicidal effect or phytotoxicity of 90% or more)
COc1cc(CS(=O)(=O)C2=NOC(C)(C)C2)cc(OC)c1 [Compound 1-524]	5 (A herbicidal effect or phytotoxicity of 90% or more)	5 (A herbicidal effect or phytotoxicity of 90% or more)	5 (A herbicidal effect or phytotoxicity of 90% or more)	5 (A herbicidal effect or phytotoxicity of 90% or more)
CCc1cccc(C)c1CS(=O)(=O)C1=NOC(C)(C)C1 [Compound 1-525]	5 (A herbicidal effect or phytotoxicity of 90% or more)	5 (A herbicidal effect or phytotoxicity of 90% or more)	5 (A herbicidal effect or phytotoxicity of 90% or more)	5 (A herbicidal effect or phytotoxicity of 90% or more)
CC1(C)CC(S(=O)(=O)Cc2c(F)cccc2C(F)(F)F)=NO1 [Compound 1-527]	5 (A herbicidal effect or phytotoxicity of 90% or more)	5 (A herbicidal effect or phytotoxicity of 90% or more)	5 (A herbicidal effect or phytotoxicity of 90% or more)	5 (A herbicidal effect or phytotoxicity of 90% or more)
CC1(C)CC(S(=O)(=O)Cc2ccc(C(F)(F)F)cc2F)=NO1 [Compound 1-528]	5 (A herbicidal effect or phytotoxicity of 90% or more)	5 (A herbicidal effect or phytotoxicity of 90% or more)	5 (A herbicidal effect or phytotoxicity of 90% or more)	5 (A herbicidal effect or phytotoxicity of 90% or more)
Cc1cc(C)c(CS(=O)(=O)C2=NOC(C)(C)C2)c(C)c1 [Compound 1-529]	5 (A herbicidal effect or phytotoxicity of 90% or more)	5 (A herbicidal effect or phytotoxicity of 90% or more)	5 (A herbicidal effect or phytotoxicity of 90% or more)	5 (A herbicidal effect or phytotoxicity of 90% or more)
COc1ccc([N+](=O)[O-])cc1CS(=O)(=O)C1=NOC(C)(C)C1 [Compound 1-530]	5 (A herbicidal effect or phytotoxicity of 90% or more)	5 (A herbicidal effect or phytotoxicity of 90% or more)	5 (A herbicidal effect or phytotoxicity of 90% or more)	5 (A herbicidal effect or phytotoxicity of 90% or more)
CC1(C)CC(S(=O)(=O)Cc2c(F)c(F)c(F)c(F)c2F)=NO1 [Compound 1-531]	5 (A herbicidal effect or phytotoxicity of 90% or more)	5 (A herbicidal effect or phytotoxicity of 90% or more)	5 (A herbicidal effect or phytotoxicity of 90% or more)	5 (A herbicidal effect or phytotoxicity of 90% or more)
COc1cccc(OC)c1CS(=O)(=O)C1=NOC(C)(C)C1 [Compound 1-535]	5 (A herbicidal effect or phytotoxicity of 90% or more)	5 (A herbicidal effect or phytotoxicity of 90% or more)	5 (A herbicidal effect or phytotoxicity of 90% or more)	4 (A herbicidal effect or phytotoxicity of 70% to less than 90%)
CCOc1cccc(OCC)c1CS(=O)(=O)C1=NOC(C)(C)C1 [Compound 1-536]	5 (A herbicidal effect or phytotoxicity of 90% or more)	5 (A herbicidal effect or phytotoxicity of 90% or more)	5 (A herbicidal effect or phytotoxicity of 90% or more)	4 (A herbicidal effect or phytotoxicity of 70% to less than 90%)
Cc1c(CS(=O)(=O)C2=NOC(C)(C)C2)cccc1[N+](=O)[O-] [Compound 1-537]	5 (A herbicidal effect or phytotoxicity of 90% or more)	5 (A herbicidal effect or phytotoxicity of 90% or more)	5 (A herbicidal effect or phytotoxicity of 90% or more)	4 (A herbicidal effect or phytotoxicity of 70% to less than 90%)
CC1(C)CC(S(=O)(=O)Cc2ccc(F)cc2Cl)=NO1 [Compound 1-538]	5 (A herbicidal effect or phytotoxicity of 90% or more)	5 (A herbicidal effect or phytotoxicity of 90% or more)	5 (A herbicidal effect or phytotoxicity of 90% or more)	5 (A herbicidal effect or phytotoxicity of 90% or more)
CC1(C)CC(S(=O)(=O)Cc2ccc(Cl)cc2[N+](=O)[O-])=NO1 [Compound 1-539]	5 (A herbicidal effect or phytotoxicity of 90% or more)	5 (A herbicidal effect or phytotoxicity of 90% or more)	5 (A herbicidal effect or phytotoxicity of 90% or more)	5 (A herbicidal effect or phytotoxicity of 90% or more)
Cc1ccc([N+](=O)[O-])c(CS(=O)(=O)C2=NOC(C)(C)C2)c1 [Compound 1-540]	5 (A herbicidal effect or phytotoxicity of 90% or more)	5 (A herbicidal effect or phytotoxicity of 90% or more)	5 (A herbicidal effect or phytotoxicity of 90% or more)	5 (A herbicidal effect or phytotoxicity of 90% or more)
CC1(C)CC(S(=O)(=O)Cc2ccc(F)c(C(F)(F)F)c2)=NO1 [Compound 1-541]	5 (A herbicidal effect or phytotoxicity of 90% or more)	5 (A herbicidal effect or phytotoxicity of 90% or more)	5 (A herbicidal effect or phytotoxicity of 90% or more)	4 (A herbicidal effect or phytotoxicity of 70% to less than 90%)
CC1(C)CC(S(=O)(=O)Cc2cc(F)cc(C(F)(F)F)c2)=NO1 [Compound 1-542]	5 (A herbicidal effect or phytotoxicity of 90% or more)	5 (A herbicidal effect or phytotoxicity of 90% or more)	5 (A herbicidal effect or phytotoxicity of 90% or more)	4 (A herbicidal effect or phytotoxicity of 70% to less than 90%)
CC1(C)CC(S(=O)(=O)Cc2cc(C(F)(F)F)cc(C(F)(F)F)c2)=NO1 [Compound 1-543]	5 (A herbicidal effect or phytotoxicity of 90% or more)	5 (A herbicidal effect or phytotoxicity of 90% or more)	5 (A herbicidal effect or phytotoxicity of 90% or more)	4 (A herbicidal effect or phytotoxicity of 70% to less than 90%)
